# In PubChem BioAssay AID2060609 (Molecular Pharmacology Branch, DTP, NCI, 2025):
# Several values for one entry are separate records, joined by “and”; a condition that tells them apart may be missing. Identical values can stand only once.
# Tested on: 855422-203-R-J1-PDC complex spheroids, viability
# Assay: Anticancer human tumor 855422-203-R-J1-PDC patient-derived bladder carcinoma cell line growth inhibition [CLK]
# Conditions: for viability, T/C: stronger effect = lower value
# From the text: A high-throughput screen of multi-cell type tumor spheroids was designed to identify active combinations of […] and targeted small molecules. Complex spheroids include a stromal component modeled by human endothelial cells (HUVEC) and fibroblasts modeled by human mesenchymal stem cells (MSCs). The concentration ranges selected for each drug and investigational agent were based upon clinically achievable concentrations if the clinical Cmax of the agent was known.
# Compounds. The drugs and investigational agents: cirtuvivint (SM08502; NSC835563), CC-671 (NSC850746), vemurafenib (NSC761431), tapotoclax (NSC804041), sotorasib (NSC818433), adagrasib (NSC831453), MRTX-1133 (NSC836407), BAY2416964 (NSC825713), copanlisib (NSC816437), inavolisib (NSC800729), abemaciclib (NSC768073), osimertinib (NSC779217), entinostat (NSC756642), eltanexor (KPT-8602, NSC794443), venetoclax (NSC766270), ceralasertib (NSC777638), bortezomib (NSC756655), olaparib (NSC753686), talazoparib (NSC767125), alisertib (NSC759677), peposertib (NSC802822), gemcitabine (NSC613327), 5-fluorouracil (NSC19893), SN-38 (NSC673596), oxaliplatin (NSC266046), paclitaxel (NSC125973), and doxorubicin (NSC123127), were obtained from the National Cancer Institute (NCI) Developmental Therapeutics Program Chemical Repository. The FDA-approved anticancer drug set is available from the Developmental Therapeutics Program at https://dtp.cancer.gov/organization/dscb/obtaining/available plates.htm. […] The stock solutions were prepared in dimethyl sulfoxide (DMSO, Sigma-Aldrich, St. Louis, MO, cat. D2650), except for the platinum complexes which were prepared in saline (Quality Biological, Gaithersburg, MD, cat. 114-055-101), at 800-fold the tested concentration and stored at -70 degrees C prior to their use. All drugs and investigational agents were tested over a range starting from a high concentration at or near the clinical Cmax and decreasing in half-log increments. If the clinical Cmax for an agent had not been determined, the highest concentration tested was 10 microM.
# Cell Culture. All cells were maintained in an incubator at 37 degrees C and 5% CO2 with 95% humidity. The PDC lines were cultured according to standard operating procedures established by the NCI PDMR. Briefly, all PDCs were thawed and cultured in Matrigel-coated flasks prepared with a working solution of 1X Ham's F-12 nutrient mix, without supplementation (Invitrogen, Waltham, MA, cat. 11765054), 100 U/mL penicillin-streptomycin (Invitrogen, cat. 15140122), and 2.5% Matrigel (Corning Inc., Corning, NY, cat. 354248) for the first three passages. The 947758-054-R-J2-PDC line was cultured in 6B/Colon 1A media, which includes advanced DMEM/F-12 (Thermo Fisher Scientific, cat. 12634028), 10 mM HEPES (Thermo Fisher Scientific, cat. 15630080), 1X GlutaMAX supplement (Thermo Fisher Scientific, cat. 35050061), 0.1 mg/mL primocin (InvivoGen, cat. ant-pm-2), 10% defined fetal bovine serum, heat inactivated (HyClone Laboratories Inc., cat. SH30070.03HI), 1.25 mM N-Acetyl-L-cysteine (Sigma-Aldrich, cat. A9165), 10 mM nicotinamide (Sigma-Aldrich, cat. N0636), 1X B-27 supplement (Thermo Fisher Scientific, cat. 17504044), 1X N-2 supplement (Thermo Fisher Scientific, cat. 17502048), and 10 microM Y-27632 dihydrochloride (Tocris Bioscience, cat. 1254). The 876862-298-R-J1-PDC was cultured in 6E media, which includes all 6B/Colon 1A media components plus 50% L-WRN conditioned media (ATCC, cat. CRL-3276), 50 ng/mL recombinant human EGF recombinant protein (hEGF; Thermo Fisher Scientific, cat. PHG0311), 10 ng/mL recombinant human fibroblast growth factor 10 (hGFG-10; PeproTech, cat. 100-26), 1 ng/mL recombinant human fibroblast growth factor 2 (hFGF-2; PeproTech, cat. 100-18B), and 1 µM prostaglandin E2 (PGE2; Tocris, cat. 2296). The 227483-062-R1-J1-PDC line was cultured in Panc media, containing all 6E components except hFGF-2, with the addition of 500 nM SB-431542 (Selleckchem, cat. S1067) and 10 nM gastrin (Tocris, cat. 3006). […]
# [1] = curve of first compound, second compound 0.0316 µM
# [2] = curve of first compound, second compound 0.1 µM
# [3] = curve of first compound, second compound 0.316 µM
# [4] = curve of first compound, second compound 1 µM
# [5] = curve of first compound, second compound 3.16 µM
# [6] = curve of first compound, second compound 10 µM
# [7] = second compound 0.0316 µM, first compound 0.0316 µM
# [8] = second compound 0.0316 µM, first compound 0.1 µM
# [9] = second compound 0.0316 µM, first compound 0.316 µM
# [10] = second compound 0.0316 µM, first compound 1 µM
# [11] = second compound 0.0316 µM, first compound 3.16 µM
# [12] = second compound 0.0316 µM, first compound 10 µM
# [13] = second compound 0.1 µM, first compound 0.0316 µM
# [14] = second compound 0.1 µM, first compound 0.1 µM
# [15] = second compound 0.1 µM, first compound 0.316 µM
# [16] = second compound 0.1 µM, first compound 1 µM
# [17] = second compound 0.1 µM, first compound 3.16 µM
# [18] = second compound 0.1 µM, first compound 10 µM
# [19] = second compound 0.316 µM, first compound 0.0316 µM
# [20] = second compound 0.316 µM, first compound 0.1 µM
# [21] = second compound 0.316 µM, first compound 0.316 µM
# [22] = second compound 0.316 µM, first compound 1 µM
# [23] = second compound 0.316 µM, first compound 3.16 µM
# [24] = second compound 0.316 µM, first compound 10 µM
# [25] = second compound 1 µM, first compound 0.0316 µM
# [26] = second compound 1 µM, first compound 0.1 µM
# [27] = second compound 1 µM, first compound 0.316 µM
# [28] = second compound 1 µM, first compound 1 µM
# [29] = second compound 1 µM, first compound 3.16 µM
# [30] = second compound 1 µM, first compound 10 µM
# [31] = second compound 3.16 µM, first compound 0.0316 µM
# [32] = second compound 3.16 µM, first compound 0.1 µM
# [33] = second compound 3.16 µM, first compound 0.316 µM
# [34] = second compound 3.16 µM, first compound 1 µM
# [35] = second compound 3.16 µM, first compound 3.16 µM
# [36] = second compound 3.16 µM, first compound 10 µM
# [37] = second compound 10 µM, first compound 0.0316 µM
# [38] = second compound 10 µM, first compound 0.1 µM
# [39] = second compound 10 µM, first compound 0.316 µM
# [40] = second compound 10 µM, first compound 1 µM
# [41] = second compound 10 µM, first compound 3.16 µM
# [42] = second compound 10 µM, first compound 10 µM
# 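Also: spheroids exposed to drugs for seven days before readout.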
# 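For viability, T/C in this document: 100% = DMSO vehicle control wells.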
smiles,measurement,setting,value
CC1(C)CCC(CN2CCN(c3ccc(C(=O)NS(=O)(=O)c4ccc(NCC5CCOCC5)c([N+](=O)[O-])c4)c(Oc4cnc5[nH]ccc5c4)c3)CC2)=C(c2ccc(Cl)cc2)C1 + CN1CCN(c2cc(C(=O)Nc3cc4cc(-c5cnn(C)c5)ccc4cn3)ccn2)CC1,IC50,[1],6060 nM
same,IC50,[2],5320 nM
same,IC50,[3],< 31.6 nM
same,IC50,[4],< 31.6 nM
same,IC50,[5],< 31.6 nM
same,IC50,[6],< 31.6 nM
same,"viability, T/C",[7],97.3%
same,"viability, T/C",[8],96.2%
same,"viability, T/C",[9],115%
same,"viability, T/C",[10],116%
same,"viability, T/C",[11],137%
same,"viability, T/C",[12],1.97%
same,"viability, T/C",[13],85.1%
same,"viability, T/C",[14],81.9%
same,"viability, T/C",[15],104%
same,"viability, T/C",[16],88.2%
same,"viability, T/C",[17],93%
same,"viability, T/C",[18],1.08%
same,"viability, T/C",[19],10.7%
same,"viability, T/C",[20],11.8%
same,"viability, T/C",[21],8.68%
same,"viability, T/C",[22],10.2%
same,"viability, T/C",[23],10.3%
same,"viability, T/C",[24],0.47%
same,"viability, T/C",[25],0.26%
same,"viability, T/C",[26],0.89%
same,"viability, T/C",[27],0.24%
same,"viability, T/C",[28],0.46%
same,"viability, T/C",[29],0.51%
same,"viability, T/C",[30],0.11%
same,"viability, T/C",[31],0.63%
same,"viability, T/C",[32],2.77%
same,"viability, T/C",[33],0.71%
same,"viability, T/C",[34],0.87%
same,"viability, T/C",[35],1.82%
same,"viability, T/C",[36],1.58%
same,"viability, T/C",[37],0.52%
same,"viability, T/C",[38],0.31%
same,"viability, T/C",[39],0.36%
same,"viability, T/C",[40],0.45%
same,"viability, T/C",[41],0.29%
same,"viability, T/C",[42],0.25%
COC1C=CCC(C)C(C)S(=O)(=O)NC(=O)c2ccc3c(c2)N(CC2CCC21)CC1(CCCc2cc(Cl)ccc21)CO3 (stereo not given) + CNC(=O)c1ccc(Nc2nc(OC3CCCC3)c3c(-c4ccc5nc(C)oc5c4)c[nH]c3n2)c(OC)c1,IC50,[1],7390 nM
same,IC50,[2],> 10000 nM
same,IC50,[3],< 31.6 nM
same,IC50,[4],< 31.6 nM
same,IC50,[5],< 31.6 nM
same,IC50,[6],< 31.6 nM
same,"viability, T/C",[7],96%
same,"viability, T/C",[8],105%
same,"viability, T/C",[9],122%
same,"viability, T/C",[10],132%
same,"viability, T/C",[11],151%
same,"viability, T/C",[12],24.7%
same,"viability, T/C",[13],53.6%
same,"viability, T/C",[14],63.6%
same,"viability, T/C",[15],54.1%
same,"viability, T/C",[16],77.3%
same,"viability, T/C",[17],105%
same,"viability, T/C",[18],33.3%
same,"viability, T/C",[19],20%
same,"viability, T/C",[20],23.7%
same,"viability, T/C",[21],20.7%
same,"viability, T/C",[22],17.2%
same,"viability, T/C",[23],34.1%
same,"viability, T/C",[24],22%
same,"viability, T/C",[25],19.8%
same,"viability, T/C",[26],17.3%
same,"viability, T/C",[27],18.2%
same,"viability, T/C",[28],19.5%
same,"viability, T/C",[29],21.9%
same,"viability, T/C",[30],29%
same,"viability, T/C",[31],15.8%
same,"viability, T/C",[32],18.1%
same,"viability, T/C",[33],16.4%
same,"viability, T/C",[34],15.1%
same,"viability, T/C",[35],20.8%
same,"viability, T/C",[36],23.3%
same,"viability, T/C",[37],17.7%
same,"viability, T/C",[38],18.6%
same,"viability, T/C",[39],17.9%
same,"viability, T/C",[40],17.4%
same,"viability, T/C",[41],17.9%
same,"viability, T/C",[42],23.3%
CCCS(=O)(=O)Nc1ccc(F)c(C(=O)c2c[nH]c3ncc(-c4ccc(Cl)cc4)cc23)c1F,"viability, T/C",compound 0.0316 µM,101% and 114%
same,"viability, T/C",compound 0.1 µM,98.5% and 97.8%
same,"viability, T/C",compound 0.316 µM,112% and 118%
same,"viability, T/C",compound 1 µM,107% and 111%
same,"viability, T/C",compound 3.16 µM,109% and 119%
same,"viability, T/C",compound 10 µM,3.67% and 1.89%
same,IC50,curve of compound,5930 nM and 6040 nM
Cn1ncnc1[C@H]1c2n[nH]c(=O)c3cc(F)cc(c23)N[C@@H]1c1ccc(F)cc1,"viability, T/C",compound 0.000316 µM,105% and 134%
same,"viability, T/C",compound 0.001 µM,97.5% and 96.9%
same,"viability, T/C",compound 0.00316 µM,110% and 130%
same,"viability, T/C",compound 0.01 µM,113% and 102%
same,"viability, T/C",compound 0.0316 µM,121% and 158%
same,"viability, T/C",compound 0.1 µM,110% and 141%
same,IC50,curve of compound,> 100 nM
Nc1ccccc1NC(=O)c1ccc(CNC(=O)OCc2cccnc2)cc1,"viability, T/C",compound 0.0316 µM,81.5% and 97.5%
same,"viability, T/C",compound 0.1 µM,72.8% and 73.2%
same,"viability, T/C",compound 0.316 µM,75.6% and 75%
same,"viability, T/C",compound 1 µM,60.6% and 54.4%
same,"viability, T/C",compound 3.16 µM,21.2% and 28.1%
same,"viability, T/C",compound 10 µM,2.46% and 1.54%
same,IC50,curve of compound,1360 nM and 1140 nM
